Experimental data as given in patent US6914121B2, “PEG-LHRH analog conjugates” (Applied Research Systems Ars Holding N.V., priority 1998, dated 2005).
≈ marks a conversion by molar mass, not a printed value. Square brackets hold non-standard residues; d marks the D form. Peptide text beside a SMILES is read from it. * marks the point of attachment. Phe(4-Cl) = N[CH](Cc1ccc(Cl)cc1)C(=O)O; 2Nal = N[CH](Cc1ccc2ccccc2c1)C(=O)O; Lys(iPr) = CC(C)NCCCC[CH](N)C(=O)O; 3Pal = N[CH](Cc1cccnc1)C(=O)O; Nicotinoyl = O=C(c1cccnc1)*

Legend:
[1] = Solubility of antide in isotonic media; format: physicochemical
[2] = previous formulations, e.g. antide 1 mg/ml in 5% glucose; cited from earlier work

CC(=O)NC(Cc1ccc2ccccc2c1)C(=O)NC(Cc1ccc(Cl)cc1)C(=O)NC(Cc1cccnc1)C(=O)NC(CO)C(=O)NC(CCCCNC(=O)c1cccnc1)C(=O)NC(CCCCNC(=O)c1cccnc1)C(=O)NC(CC(C)C)C(=O)NC(CCCCNC(C)C)C(=O)N1CCCC1C(=O)NC(C)C(N)=O (stereo not drawn) [antide] (Ac-[2Nal][Phe(4-Cl)][3Pal]SK(Nicotinoyl)K(Nicotinoyl)L[Lys(iPr)]PA-NH2; configuration not given here)
solubility ([1]; 0.9% NaCl solution): 25 µg/mL (≈ 15.7 µM) | solubility ([1]; phosphate buffered saline): 16 µg/mL (≈ 10.1 µM) | bioavailability [2]: poor bioavailability
